Assay results from paper PMC6294118 (Pharmaceutical research, 2018).

How the values were obtained:
hOCT1 [1] = biological target: T1, hOCT1 (Homo sapiens, UniProt O15245); assay: cell-based
T1 sequence (O15245 1-554): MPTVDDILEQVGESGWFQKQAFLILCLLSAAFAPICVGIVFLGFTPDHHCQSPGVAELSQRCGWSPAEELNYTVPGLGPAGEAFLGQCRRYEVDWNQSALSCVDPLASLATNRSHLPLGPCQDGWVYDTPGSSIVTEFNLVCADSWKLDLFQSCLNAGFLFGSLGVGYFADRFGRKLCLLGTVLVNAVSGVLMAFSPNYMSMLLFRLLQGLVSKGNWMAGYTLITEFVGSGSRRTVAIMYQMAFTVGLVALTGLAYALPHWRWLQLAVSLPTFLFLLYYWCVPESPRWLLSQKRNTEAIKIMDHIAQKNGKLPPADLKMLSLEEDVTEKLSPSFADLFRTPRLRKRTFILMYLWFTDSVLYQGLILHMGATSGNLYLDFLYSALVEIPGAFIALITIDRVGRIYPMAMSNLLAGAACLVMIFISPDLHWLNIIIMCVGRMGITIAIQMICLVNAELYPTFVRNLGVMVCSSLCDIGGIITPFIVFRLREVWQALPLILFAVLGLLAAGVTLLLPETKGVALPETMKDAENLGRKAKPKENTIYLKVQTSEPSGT

[2] = cited from earlier work; for Cmax port,unbound (maximal unbound plasma concentration in the portal vein): in vivo
hOCT2 = biological target: T2, hOCT2 (Homo sapiens, UniProt O15244); assay: Inhibition of hOCT2-mediated morphine uptake in HEK293-hOCT2 cells; type: cell-based; conditions: for Cmax,unbound/IC50 (hOCT2): ratio of literature Cmax,unbound to hOCT2 IC50
T2 sequence (O15244 1-555): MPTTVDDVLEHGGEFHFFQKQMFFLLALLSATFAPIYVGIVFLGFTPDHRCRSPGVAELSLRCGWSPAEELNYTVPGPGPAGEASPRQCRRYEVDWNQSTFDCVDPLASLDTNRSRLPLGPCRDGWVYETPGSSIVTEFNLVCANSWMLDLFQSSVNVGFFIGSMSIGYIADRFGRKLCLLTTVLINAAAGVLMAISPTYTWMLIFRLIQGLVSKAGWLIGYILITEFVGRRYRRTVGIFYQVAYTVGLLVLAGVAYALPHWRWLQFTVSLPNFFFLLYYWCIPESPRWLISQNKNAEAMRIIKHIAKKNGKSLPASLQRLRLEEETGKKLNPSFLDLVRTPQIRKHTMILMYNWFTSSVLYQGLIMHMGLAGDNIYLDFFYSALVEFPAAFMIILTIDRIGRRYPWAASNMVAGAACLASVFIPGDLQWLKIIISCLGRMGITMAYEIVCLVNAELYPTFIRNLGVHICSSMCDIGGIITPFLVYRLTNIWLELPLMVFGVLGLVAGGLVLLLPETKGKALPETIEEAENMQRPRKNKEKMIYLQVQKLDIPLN

hOCT1 [3] = biological target: T1, hOCT1; conditions: for Cmax,unbound/IC50 (hOCT1): ratio of literature Cmax,unbound to hOCT1 IC50; for Cmax,unbound/IC50 (hOCT1, second ratio column): ratio to hOCT1 IC50, the values fit Cmax port,unbound/IC50

SMILES	IC50 (hOCT1 [1]) [µM]	Cmax port,unbound (maximal unbound plasma concentration in the portal vein) [2] [nM]	IC50 (hOCT2) [µM]	Cmax,unbound/IC50 (hOCT2) (hOCT2)	Cmax,unbound/IC50 (hOCT1) (hOCT1 [3])	Cmax,unbound/IC50 (hOCT1, second ratio column) (hOCT1 [3])	Fraction of dose excreted as unchanged morphine in urine [2]
CN(C)CCC=C1c2ccccc2CCc2ccccc21 [Amitriptyline, amitriptyline]	1.89 ± 0.77	4300	0.41 ± 0.05	0.02	0.005	2.28	–
CNCCC(Oc1ccc(C(F)(F)F)cc1)c1ccccc1 (stereo not drawn) [Fluoxetine, fluoxetine]	9.06 ± 3.24	700	3.32 ± 0.76	0.003	0.001	0.08	–
CN(C)CCCN1c2ccccc2CCc2ccccc21 [Imipramine, imipramine]	4.03 ± 1.62	4500	–	–	–	–	–
CCc1c2c(nc3ccc(OC(=O)N4CCC(N5CCCCC5)CC4)cc13)-c1cc3c(c(=O)n1C2)COC(=O)[C@]3(O)CC [Irinotecan, irinotecan]	1.36 ± 0.43	–	–	–	–	–	–
Cc1nccn1CC1CCc2c(c3ccccc3n2C)C1=O (stereo not drawn) [Ondansetron, ondansetron]	0.27 ± 0.1	80	–	–	–	–	–
CN1CC[C@]23c4c5ccc(O)c4O[C@H]2[C@@H](O)C=C[C@H]3[C@H]1C5 [morphine]	–	–	–	–	–	–	approximately 10%
